# Measured values from ChEMBL document CHEMBL1126144, “Synthesis and evaluation of radioiodinated 2-(2(RS)-aminopropyl)-5- iodothiophenes as brain imaging agents” (J Med Chem, 1992).
# Assays:
# Rattus norvegicus [1] = experiment: Distribution of the radioiodinated compound expressed as percent dose per gram, in lungs of unfasted rats after 30 mins of intravenous administration (11.5 uCi/animal); value ranges from 0.51-3.71 % dose/g; type: ADME, organism-based, Lung; conditions: in vivo, 0.5 h
# Rattus norvegicus [2] = experiment: Distribution of the radioiodinated compound expressed as percent dose per gram, in liver of unfasted rats after 5 mins of intravenous administration (11.5 uCi/animal); value ranges from 1.64-2.38 % dose/g; type: ADME, organism-based; conditions: in vivo
# Rattus norvegicus [3] = experiment: Distribution of the radioiodinated compound expressed as percent dose per gram, in blood of unfasted rats after 60 mins of intravenous administration (11.5 uCi/animal); value ranges from % dose/g; type: ADME, organism-based; conditions: in vivo, 1 h
# Rattus norvegicus [4] = experiment: Distribution of the radioiodinated compound expressed as percent dose per gram, in lungs of unfasted rats after 5 mins of intravenous administration (11.5 uCi/animal); value ranges from 5.92-8.51% dose/g; type: ADME, organism-based, Lung; conditions: in vivo
# Rattus norvegicus [5] = experiment: Distribution of the radioiodinated compound expressed as percent dose per organ, in thyroid of unfasted rats after 5 mins of intravenous administration (11.5 uCi/animal); value ranges from 0.08-0.17 % dose/g; type: ADME, organism-based, Thyroid gland; conditions: in vivo
# Rattus norvegicus [6] = experiment: Distribution of the radioiodinated compound expressed as percent dose per gram, in lungs of unfasted rats after 60 mins of intravenous administration (11.5 uCi/animal); value ranges from 1.87-2.12 % dose/g; type: ADME, organism-based, Lung; conditions: in vivo, 1 h
# Rattus norvegicus [7] = experiment: Distribution of the radioiodinated compound expressed as percent dose per gram, in liver of unfasted rats after 60 mins of intravenous administration (11.5 uCi/animal); value ranges from 0.61-0.81 % dose/g; type: ADME, organism-based; conditions: in vivo, 1 h
# Rattus norvegicus [8] = experiment: Distribution of the radioiodinated compound expressed as percent dose per gram, in heart of unfasted rats after 30 mins of intravenous administration (11.5 uCi/animal); value ranges from 0.06-0.53 % dose/g; type: ADME, organism-based; conditions: in vivo, 0.5 h
# Rattus norvegicus [9] = experiment: Distribution of the radioiodinated compound expressed as percent dose per gram, in kidney of unfasted rats after 30 mins of intravenous administration (11.5 uCi/animal); value ranges from 0.15-1.43 % dose/g; type: ADME, organism-based; conditions: in vivo, 0.5 h
# Rattus norvegicus [10] = experiment: Distribution of the radioiodinated compound expressed as percent dose per gram, in brain of unfasted rats after 5 mins of intravenous administration (11.5 uCi/animal); value ranges from 2.57-3.59 % dose/g; type: ADME, organism-based; conditions: in vivo
# Rattus norvegicus [11] = species on record: Rattus norvegicus; experiment: Specific activity of the radioiodinated compound was determined in rats; type: functional
# Rattus norvegicus [12] = experiment: Distribution of the radioiodinated compound expressed as percent dose per gram, in brain of unfasted rats after 60 mins of intravenous administration (11.5 uCi/animal); value ranges from 0.81-1.08 % dose/g; type: ADME, organism-based; conditions: in vivo, 1 h
# Rattus norvegicus [13] = experiment: Distribution of the radioiodinated compound expressed as percent dose per gram, in thyroid of unfasted rats after 30 mins of intravenous administration (11.5 uCi/animal); value ranges from 5.03-36.88 % dose/g; type: ADME, organism-based, Thyroid gland; conditions: in vivo, 0.5 h
# Rattus norvegicus [14] = experiment: Distribution of the radioiodinated compound expressed as percent dose per gram, in thyroid of unfasted rats after 60 mins of intravenous administration (11.5 uCi/animal); value ranges from 31.90-39.98 % dose/g; type: ADME, organism-based, Thyroid gland; conditions: in vivo, 1 h
# Rattus norvegicus [15] = experiment: Distribution of the radioiodinated compound expressed as percent dose per organ, in thyroid of unfasted rats after 60 mins of intravenous administration (11.5 uCi/animal); value ranges from 0.99-1.40 % dose/g; type: ADME, organism-based, Thyroid gland; conditions: in vivo, 1 h
# Rattus norvegicus [16] = experiment: Distribution of the radioiodinated compound expressed as percent dose per gram, in brain of unfasted rats after 30 mins of intravenous administration (11.5 uCi/animal); value ranges from 0.16-1.76 % dose/g; type: ADME, organism-based; conditions: in vivo, 0.5 h
# Rattus norvegicus [17] = experiment: Distribution of the radioiodinated compound expressed as percent dose per gram, in blood of unfasted rats after 30 mins of intravenous administration (11.5 uCi/animal); value ranges from 0.06-0.63 % dose/g; type: ADME, organism-based; conditions: in vivo, 0.5 h
# Rattus norvegicus [18] = experiment: Distribution of the radioiodinated compound expressed as percent dose per gram, in blood of unfasted rats after 5 mins of intravenous administration (11.5 uCi/animal); value ranges from 0.28-0.37% dose/g; type: ADME, organism-based; conditions: in vivo
# Rattus norvegicus [19] = experiment: Distribution of the radioiodinated compound expressed as percent dose per gram, in kidney of unfasted rats after 60 mins of intravenous administration (11.5 uCi/animal); value ranges from 0.74-0.85 % dose/g; type: ADME, organism-based; conditions: in vivo, 1 h
# Rattus norvegicus [20] = experiment: Distribution of the radioiodinated compound expressed as percent dose per gram, in heart of unfasted rats after 60 mins of intravenous administration (11.5 uCi/animal); value ranges from 0.33-0.42 % dose/g; type: ADME, organism-based; conditions: in vivo, 1 h
# Rattus norvegicus [21] = experiment: Distribution of the radioiodinated compound expressed as percent dose per gram, in liver of unfasted rats after 30 mins of intravenous administration (11.5 uCi/animal); value ranges from 0.08-0.90 % dose/g; type: ADME, organism-based; conditions: in vivo, 0.5 h
# Rattus norvegicus [22] = experiment: Distribution of the radioiodinated compound expressed as percent dose per organ, in thyroid of unfasted rats after 30 mins of intravenous administration (11.5 uCi/animal); value ranges from 0.05-0.38 % dose/g; type: ADME, organism-based, Thyroid gland; conditions: in vivo, 0.5 h
# Rattus norvegicus [23] = experiment: Distribution of the radioiodinated compound expressed as percent dose per gram, in kidney of unfasted rats after 5 mins of intravenous administration (11.5 uCi/animal); value ranges from 2.12-3.14 % dose/g; type: ADME, organism-based; conditions: in vivo
# Rattus norvegicus [24] = experiment: Distribution of the radioiodinated compound expressed as percent dose per gram, in heart of unfasted rats after 5 mins of intravenous administration (11.5 uCi/animal); value ranges from 0.85-1.13 % dose/g; type: ADME, organism-based; conditions: in vivo
# Rattus norvegicus [25] = experiment: Distribution of the radioiodinated compound expressed as percent dose per gram, in thyroid of unfasted rats after 5 mins of intravenous administration (11.5 uCi/animal); value ranges from 7.87-16.51 % dose/g; type: ADME, organism-based, Thyroid gland; conditions: in vivo
compound,measurement,setting,value
CC(C)NC(C)Cc1ccc(I)s1 (racemic),Distribution,Rattus norvegicus [1],2.76 % dose g-1
same,Distribution,Rattus norvegicus [2],2.06 % dose g-1
same,Distribution,Rattus norvegicus [3],0.6 % dose g-1
same,Distribution,Rattus norvegicus [4],7.01 % dose g-1
same,Distribution,Rattus norvegicus [5],0.13 % dose organ-1
same,Distribution,Rattus norvegicus [6],1.97 % dose g-1
same,Distribution,Rattus norvegicus [7],0.07 % dose g-1
same,Distribution,Rattus norvegicus [8],0.42 % dose g-1
same,Distribution,Rattus norvegicus [9],1.04 % dose g-1
same,Distribution,Rattus norvegicus [10],3.18 % dose g-1
same,Activity,Rattus norvegicus [11],40 mCi animal-1
same,Distribution,Rattus norvegicus [12],0.95 % dose g-1
same,Distribution,Rattus norvegicus [13],26.26 % dose g-1
same,Distribution,Rattus norvegicus [14],36.45 % dose g-1
same,Distribution,Rattus norvegicus [15],1.24 % dose organ-1
same,Distribution,Rattus norvegicus [16],1.37 % dose g-1
same,Distribution,Rattus norvegicus [17],0.49 % dose g-1
same,Distribution,Rattus norvegicus [18],0.31 % dose g-1
same,Distribution,Rattus norvegicus [19],0.79 % dose g-1
same,Distribution,Rattus norvegicus [20],0.37 % dose g-1
same,Distribution,Rattus norvegicus [21],0.71 % dose g-1
same,Distribution,Rattus norvegicus [22],0.28 % dose organ-1
same,Distribution,Rattus norvegicus [23],2.72 % dose g-1
same,Distribution,Rattus norvegicus [24],0.94 % dose g-1
same,Distribution,Rattus norvegicus [25],12.51 % dose g-1
